The record followed here is patent publication US10112958B2, “N-[2-(2-amino-6,6-disubstituted-4,4a,5,6-tetrahydropyrano[3,4-d][1,3]thiazin-8a(8H)-YL)-1,3-thiazol-4-YL] amides” (Pfizer Inc., priority 2015, dated 2018).

Molecules are shown by their SMILES.

The assay deals with T1, BACE1 enzyme (Homo sapiens, UniProt P56817).
T1 construct: transfected with a soluble BACE construct (BACE1deltaTM96His); His (C); made in house; host or cells: CHO-K1 cells (secreted into conditioned media)
T1 sequence (P56817 46-457 limits assumed): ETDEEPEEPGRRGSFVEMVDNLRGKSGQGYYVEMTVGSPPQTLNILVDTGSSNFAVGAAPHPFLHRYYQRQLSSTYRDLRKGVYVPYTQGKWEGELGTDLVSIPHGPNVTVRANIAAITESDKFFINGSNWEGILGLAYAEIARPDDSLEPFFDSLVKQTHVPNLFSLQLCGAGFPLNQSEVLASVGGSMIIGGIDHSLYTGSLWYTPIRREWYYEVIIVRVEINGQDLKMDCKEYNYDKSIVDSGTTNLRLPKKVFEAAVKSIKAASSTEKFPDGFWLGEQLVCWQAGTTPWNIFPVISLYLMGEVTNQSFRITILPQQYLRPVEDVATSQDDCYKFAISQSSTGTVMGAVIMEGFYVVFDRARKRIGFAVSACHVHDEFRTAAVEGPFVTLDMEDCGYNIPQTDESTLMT
Kind of assay: BACE1 Cell-Free Assay (fluorescence polarization, cleavage of synthetic APP substrate). The following applies: geometric mean of 2-4 determinations unless otherwise indicated (b: ≥5 determinations; c: single determination); 0.1 nM BACE1, 150 nM peptide substrate, pH 4.5, 3 hours at 37° C. It counts as biochemical. The text has this: BACE1 Cell-Free Assay: Beta-secretase (BACE) is one of the enzymes involved in the generation of the amyloid beta peptide found in the amyloid plaques of Alzheimer's disease patients. This assay measures the inhibition of the beta-secretase enzyme as it cleaves a non-native peptide.
A synthetic APP substrate that can be cleaved by beta-secretase having N-terminal biotin and made fluorescent by the covalent attachment of Oregon Green at the Cys residue is used to assay beta-secretase activity in the presence or absence of the inhibitory compounds. The substrate is Biotin-GLTNIKTEEISEISY^EVEFR-C[Oregon Green]KK-OH. The BACE1 enzyme is affinity purified material from conditioned media of CHO-K1 cells that have been transfected with a soluble BACE construct (BACE1deltaTM96His). Compounds are incubated in a ½ log dose response curve from a top concentration of 100 μM with BACE1 enzyme and the biotinylated fluorescent peptide in 384-well black plates (Thermo Scientific #4318). BACE1 is at a final concentration of 0.1 nM with a final concentration of peptide substrate of 150 nM in a reaction volume of 30 μL assay buffer [100 mM sodium acetate, pH 4.5 (brought to pH with acetic acid), and 0.001% Tween-20]. Plates are covered and incubated for 3 hours at 37° C. The reaction is stopped with the addition of 30 μL of 1.5 μM Streptavidin (Pierce, #21125). After a 10 minute incubation at room temperature, plates are read on a PerkinElmer EnVision for fluorescence polarization (Ex485 nm/Em530 nm). The activity of the beta-secretase enzyme is detected by changes in the fluorescence polarization that occur when the substrate is cleaved by the enzyme.
(In general: Polarisation of emitted light reports the rotation of a fluorescent probe.)
As a reminder, the IC50 is the concentration that inhibits the measured activity by half. Higher therefore signals weaker potency in that assay. For `NC1=N[C@@]2(c3nc(NC(=O)c4ccc(OC(F)F)cn4)cs3)COC3(CCC3)C[C@H]2CS1` (racemic) [Example 3, N-{2-[cis-2′-amino-4a′,5′-dihydro-4′H-spiro[cyclobutane-1,6′-pyrano[3,4-d][1,3]thiazin]-8a′(8′H)-yl]-1,3-thiazol-4-yl}-5-(difluoromethoxy)pyridine-2-carboxamide], 252 nM corresponded to half-maximal inhibition (IC50).
For `CC#CCOc1ccc(C(=O)Nc2csc([C@@]34COC(C)(C)C[C@@H]3CSC(N)=N4)n2)nc1` (single isomer, unassigned) [Example 1], half-maximal inhibition (IC50) was put at 31000 nM.
The same measure for `CC#CCOc1ccc(C(=O)Nc2csc([C@]34COC(C)(C)C[C@H]3CSC(N)=N4)n2)nc1` (single isomer, unassigned) [Example 2]: 88 nM; for `NC1=N[C@]2(c3nc(NC(=O)c4ccc(OC(F)F)cn4)cs3)COC3(CCC3)C[C@@H]2CS1` (single isomer, unassigned) [Example 4, N-{2-[(4a′S,8a′S)-2′-amino-4a′,5′-dihydro-4′H-spiro[cyclobutane-1,6′-pyrano[3,4-d] [1,3]thiazin]-8a′(8′H)-yl]-1,3-thiazol-4-yl}-5-(difluoromethoxy)pyridine-2-carboxamide]: more than 21100 nM; for `NC1=N[C@@]2(c3nc(NC(=O)c4ccc(OC(F)F)cn4)cs3)COC3(CCC3)C[C@H]2CS1` (single isomer, unassigned) [Example 5, N-{2-[(4a′R,8a′R)-2′-amino-4a′,5′-dihydro-4′H-spiro[cyclobutane-1,6′-pyrano[3,4-d] [1,3]thiazin]-8a′(8′H)-yl]-1,3-thiazol-4-yl}-5-(difluoromethoxy)pyridine-2-carboxamide]: 138 nM.
As for `CC1(C)C[C@@H]2CSC(N)=N[C@]2(c2nc(NC(=O)c3ccn(C(F)F)n3)cs2)CO1` (single isomer, unassigned) [Example 11], it took 6960 nM to reach half-maximal inhibition (IC50).
The value for `CC1(C)C[C@H]2CSC(N)=N[C@@]2(c2nc(NC(=O)c3ccn(C(F)F)n3)cs2)CO1` (single isomer, unassigned) [Example 12] was 22 nM; that for `CC1(C)C[C@@H]2CSC(N)=N[C@]2(c2nc(NC(=O)c3cnc(OC(F)F)cn3)cs2)CO1` (single isomer, unassigned) [Example 13] was 7950 nM; that for `CC1(C)C[C@H]2CSC(N)=N[C@@]2(c2nc(NC(=O)c3cnc(OC(F)F)cn3)cs2)CO1` (single isomer, unassigned) [Example 14] was 167 nM.
The same measure for `CC1(C)C[C@@H]2CSC(N)=N[C@]2(c2nc(NC(=O)c3ccc(OC(F)F)cn3)cs2)CO1` (single isomer, unassigned) [Example 15]: 22200 nM; for `CC(F)(F)Oc1ccc(C(=O)Nc2csc([C@@]34COC(C)(C)C[C@@H]3CSC(N)=N4)n2)nc1` (single isomer, unassigned) [Example 16]: 28500 nM; for `CC(F)(F)Oc1ccc(C(=O)Nc2csc([C@]34COC(C)(C)C[C@H]3CSC(N)=N4)n2)nc1` (single isomer, unassigned) [Example 17]: 416 nM.
Compound `CC(F)(F)COc1cnc(C(=O)Nc2csc([C@@]34COC(C)(C)C[C@@H]3CSC(N)=N4)n2)cn1` (single isomer, unassigned) [Example 18] gave an IC50 of 61700 nM.
The same measure for `CC(F)(F)COc1cnc(C(=O)Nc2csc([C@]34COC(C)(C)C[C@H]3CSC(N)=N4)n2)cn1` (single isomer, unassigned) [Example 19]: 421 nM; for `CC#CCOc1cnc(C(=O)Nc2csc([C@@]34COC(C)(C)C[C@@H]3CSC(N)=N4)n2)cn1` (single isomer, unassigned) [Example 20]: 15500 nM; for `CC#CCOc1cnc(C(=O)Nc2csc([C@]34COC(C)(C)C[C@H]3CSC(N)=N4)n2)cn1` (single isomer, unassigned) [Example 21]: 41 nM.
The value for `CC1(C)C[C@@H]2CSC(N)=N[C@]2(c2nc(NC(=O)c3coc(CF)n3)cs2)CO1` (single isomer, unassigned) [Example 22] was 15100 nM; that for `CC1(C)C[C@H]2CSC(N)=N[C@@]2(c2nc(NC(=O)c3coc(CF)n3)cs2)CO1` (single isomer, unassigned) [Example 23] was 17 nM.
The value for `Cc1cc(OC(F)F)cnc1C(=O)Nc1csc([C@@]23COC(C)(C)C[C@@H]2CSC(N)=N3)n1` (single isomer, unassigned) [Example 25] was 14800 nM.
`NC1=N[C@]2(c3nc(NC(=O)c4ccc(OC(F)F)cn4)cs3)COC3(CC3)C[C@@H]2CS1` (single isomer, unassigned) [Example 38, N-{2-[(4a′S,8a′S)-2′-amino-4a′,5′-dihydro-4′H-spiro[cyclopropane-1,6′-pyrano[3,4-d][1,3]thiazin]-8a′(8′H)-yl]-1,3-thiazol-4-yl}-5-(difluoromethoxy)pyridine-2-carboxamide] registered a concentration for half-maximal inhibition (IC50) of 34500 nM.
The same measure for `NC1=N[C@@]2(c3nc(NC(=O)c4ccc(OC(F)F)cn4)cs3)COC3(CC3)C[C@H]2CS1` (single isomer, unassigned) [Example 39, N-{2-[(4a′R,8a′R)-2′-amino-4a′,5′-dihydro-4′H-spiro[cyclopropane-1,6′-pyrano[3,4-d] [1,3]thiazin]-8a′(8′H)-yl]-1,3-thiazol-4-yl}-5-(difluoromethoxy)pyridine-2-carboxamide]: 314 nM.
The same measure for `NC1=N[C@@]2(c3nc(NC(=O)c4ccc(Cl)cn4)cs3)COC3(CCC3)C[C@H]2CS1` [Example 6, N-{2-[(4a′R,8a′R)-2′-amino-4a′,5′-dihydro-4′H-spiro[cyclobutane-1,6′-pyrano[3,4-d][1,3]thiazin]-8a′(8′H)-yl]-1,3-thiazol-4-yl}-5-chloropyridine-2-carboxamide]: 88 nM.
The value for `CC1(C)C[C@H]2CSC(N)=N[C@@]2(c2nc(NC(=O)c3ccc(OC(F)F)cn3)cs2)CO1` [Example 7, N-{2-[(4aR,8aR)-2-amino-6,6-dimethyl-4,4a,5,6-tetrahydropyrano[3,4-d][1,3]thiazin-8a(8H)-yl]-1,3-thiazol-4-yl}-5-(difluoromethoxy)pyridine-2-carboxamide] was 116 nM.
In turn, `CC[C@@]1(C)C[C@H]2CSC(N)=N[C@@]2(c2nc(NC(=O)c3ccc(OC(F)F)cn3)cs2)CO1` [Example 8, N-{2-[(4aR,6S,8aR)-2-amino-6-ethyl-6-methyl-4,4a,5,6-tetrahydropyrano[3,4-d] [1,3]thiazin-8a(8H)-yl]-1,3-thiazol-4-yl}-5-(difluoromethoxy)pyridine-2-carboxamide] returned an IC50 of 41 nM.
`COC[C@@]1(C)C[C@H]2CSC(N)=N[C@@]2(c2nc(NC(=O)c3ccc(OC(F)F)cn3)cs2)CO1` [Example 9, N-{2-[(4aR,6R,8aR)-2-amino-6-(methoxymethyl)-6-methyl-4,4a,5,6-tetrahydropyrano[3,4-d][1,3]thiazin-8a(8H)-yl]-1,3-thiazol-4-yl}-5-(difluoromethoxy) pyridine-2-carboxamide] showed an IC50 of 105 nM.
The value for `NC1=N[C@@]2(c3nc(NC(=O)c4ccc(OC(F)F)cn4)cs3)COC(CF)(CF)C[C@H]2CS1` [Example 10, N-{2-[(4aR,8aR)-2-amino-6,6-bis(fluoromethyl)-4,4a,5,6-tetrahydropyrano[3,4-d][1,3]thiazin-8a(8H)-yl]-1,3-thiazol-4-yl}-5-(difluoromethoxy)pyridine-2-carboxamide] was 565 nM; that for `Cc1cc(OC(F)F)cnc1C(=O)Nc1csc([C@]23COC(C)(C)C[C@H]2CSC(N)=N3)n1` [Example 24, N-{2-[(4aR,8aR)-2-amino-6,6-dimethyl-4,4a,5,6-tetrahydropyrano[3,4-d][1,3]thiazin-8a(8H)-yl]-1,3-thiazol-4-yl}-5-(difluoromethoxy)-3-methylpyridine-2-carboxamide] was 47 nM.
The same measure for `CC[C@@]1(C)C[C@@H]2CSC(N)=N[C@]2(c2nc(NC(=O)c3ccc(OC(F)F)cn3)cs2)CO1` [Example 26, N-{2-[(4aS,6S,8aS)-2-amino-6-ethyl-6-methyl-4,4a,5,6-tetrahydropyrano[3,4-d][1,3]thiazin-8a(8H)-yl]-1,3-thiazol-4-yl}-5-(difluoromethoxy)pyridine-2-carboxamide]: 406 nM; for `CC[C@]1(C)C[C@H]2CSC(N)=N[C@@]2(c2nc(NC(=O)c3ccc(OC(F)F)cn3)cs2)CO1` [Example 27, N-{2-[(4aR,6R,8aR)-2-amino-6-ethyl-6-methyl-4,4a,5,6-tetrahydropyrano[3,4-d][1,3]thiazin-8a(8H)-yl]-1,3-thiazol-4-yl}-5-(difluoromethoxy)pyridine-2-carboxamide]: 1830 nM.
